Patent US20230048888A1, “USE OF TRIAZOLOTRIAZINE DERIVATIVE IN TREATMENT OF DISEASES” (ZHEJIANG VIMGREEN PHARMACEUTICALS, LTD., priority 2019, published 2023)

How the values were obtained:
[1] = Stability of acetate crystal at 60° C. closed and 40° C./75% RH open, HPLC purity and XRPD; assay type: physicochemical; conditions: for XPRD (crystal form after storage): 7 days; for Purity over 7 days (area %): initial purity 98.79 area %
Description: A certain amount of acetate crystal was held at 60° C. in a closed condition and at 40° C./75% RH in an open condition for a maximum of 7 days. Samples were taken on days 0, 3, and 7 and diluted with a diluent to about 0.3 mg/mL for HPLC purity testing. The solid samples were tested by XRPD to determine the crystal form.

B16F10 tumor cells = experiment: B16F10 murine melanoma model; assay type: in vivo; conditions: for Tumor inhibition rate (%): Day 18
Description: The B16F10 murine melanoma model is a classic melanoma pharmaceutical effect evaluation model, which is made by subcutaneously inoculating the same B16F10 tumor cells into female C57BL/6 mice. The test compounds were administrated to evaluate their inhibitory effects on tumor growth in the model.
B16F10 tumor cells were cultured in a DMEM medium containing inactivated 10% fetal bovine serum, 100 U/ml penicillin, 100 μg/ml streptomycin and 2 mM glutamine in an incubator at 37° C. in the presence of 5% CO2; and after the cells grew all over, the tumor cells were divided and passaged in respective flasks every 3 to 4 days. The tumor cells in the logarithmic growth phase were used for in vivo inoculation of tumors.
The B16F10 tumor cells resuspended in a serum-free DMEM culture solution were inoculated subcutaneously at 1×10^5/100 μl to the right ribs of experimental animals. In the second group, when the tumor grew to 75 mm^3, 12 animals with a uniform tumor volume were selected and administered according to the experimental design.
The first day of tumor inoculation was D0, the first, third, and fourth groups were dosed on the second day of tumor inoculation, and the second group was dosed when the tumor volume reached 75 mm^3.
Tumor volume: the tumor volume was measured 3 times a week with a vernier caliper, and the long and short diameters of the tumor were measured. The volume was calculated with a formula as follows:
volume=0.5×long diameter×short diameter^2.
Tumor growth inhibition rate (TGI, %)=(1-T/C)×100.
T/C(%)=(average tumor volume of treatment groups on the current day-average tumor volume of treatment groups on the initial day D0)/(average tumor volume of the control group on the current day-average tumor volume of the control group on the initial day D0)×100.

CT26 cells = experiment: CT26 murine colon cancer homotransplantation model; assay type: in vivo, BALB/c mice
Description: The CT26 murine colon cancer homotransplantation model is a classic pharmaceutical effect evaluation model for colon cancer. It is constructed by subcutaneously inoculating CT26 to BALB/c mice. The test compounds were administrated to evaluate their inhibitory effects on tumor growth in the model.
CT26 cells were cultured in an RPMI1640 culture solution containing 10% fetal bovine serum. The CT26 cells in the exponential growth phase were collected and resuspended in PBS to a suitable concentration for subcutaneous tumor inoculation in mice.
(§1) Female mice were subcutaneously inoculated with 5×10^5 CT26 cells on the right side. The day of inoculation was defined as Day 0. On the second day (Day 1) of […] cell inoculation, the mice were administered randomly according to body weight.
(§2) Tumor proliferation rate, T/C %, was a percentage ratio of tumor volume or tumor weight between the treatment group and the control group at a certain time point. It was calculated with a formula was as follows:
(§3) T/C %=TTV/CTV×100% (TTV (TTV: the average TV of the treatment group at a specific time point;

[2] = test system: murine colon cancer MC38 cell line; experiment: Subcutaneous homotransplantation of murine colon cancer MC38 cell line in C57BL/6 female mice; assay type: in vivo; conditions: for T/C (%) / TGI (%) / Tumor volume: Day 22
Description: The MC38 mouse colon cancer cell model is a commonly used model for verifying a pharmaceutical effect on the colon cancer. It is mostly used to study the occurrence and metastasis direction of the colorectal cancer, and has become a common approach to the pharmaceutical effect verification for tumors. The anti-tumor effect of the subcutaneous homotransplantation of a test drug in a murine colon cancer MC38 cell line of C57BL/6 female mouse model was evaluated.
MC38 cells were cultured in a DMEM culture solution containing 10% fetal bovine serum. The MC38 cells in the exponential growth phase were collected and resuspended in PBS to a suitable concentration for subcutaneous tumor inoculation in mice.
as §1, with “1×10^6 MC38” for “5×10^5 CT26”, “weight. The solution of Compound 22 was prepared at 3 mg/mL and 10 mg/mL respectively for later use.” for “weight.”
Formula for calculating tumor volume: tumor volume (mm^3)=½×(a×b^2) (a representing a long diameter and b representing a short diameter);
as §2, §3
All experimental results were represented as the average tumor volume±SEM (mean standard error). Statistical analysis between different groups were conducted to select the optimal drug treatment point (usually after the last dosage). A comparison was conducted with the independent sample T test method to determine if there is a significant difference in tumor volume between the treatment group ad the control group. All data were analyzed with SPSS 18.0. P<0.05 indicated a significant difference.

[3] = 30 mg/kg p.o. QD combined with Anti-PD-1 100 μg/animal i.p.

With `CC(=O)O.Nc1nc(NCCc2ccc(NC3COC3)cc2)nc2nc(-c3ccco3)nn12` [Acetate of Compound 22, 2-(furan-2-yl)-N5-(4-(oxetane-3-ylamino)phenethyl)-[1,2,4]triazolo[1,5-a][1,3,5]triazine-5,7-diamine acetate] the “XPRD (crystal form after storage)” value ([1]; 40° C./75% RH open) was “Transformed”, the “Purity over 7 days (area %)” value ([1]; 40° C./75% RH open) was 98.99 area % and the “Degradation under test conditions” value ([1]; 60° C. and 40° C./75% RH, up to 7 days) was “no significant degradation”. The “XPRD (crystal form after storage)” value ([1]; 60° C. closed) was “Unchanged” and the “Purity over 7 days (area %)” value ([1]; 60° C. closed) was 99.01 area %.

With `Nc1nc(NCCc2ccc(NC3COC3)cc2)nc2nc(-c3ccco3)nn12` [Compound 22, 2-(furan-2-yl)-N5-(4-(oxetan-3-ylamino)phenethyl)-[1,2,4]triazolo[1,5-a][1,3,5]triazine-5,7-diamine] the “Tumor inhibition rate (%)” value (B16F10 tumor cells; 50 mg/kg p.o. QD) was 22.1%, the “Tumor inhibition rate (%)” value (B16F10 tumor cells; 50 mg/kg p.o. QD + Anti PD-1 10 mg/kg i.p. 2/WK) was 48.1% and the “Animal death / changes in body weight” value (B16F10 tumor cells; alone or combined with anti PD-1) was “No animal death or significant changes in body weight”. For the same molecule, the “T/C (%)” value (CT26 cells; Day 26, 100 mg/kg p.o. QD) was 81%, the “TGI (%)” value (CT26 cells; Day 26, 100 mg/kg p.o. QD) was 19% and the Tumor volume (CT26 cells; Day 26, 100 mg/kg p.o. QD, in mm³) was 1988.56 ± 325.70. For the same molecule, the “Clinical abnormalities during the dosage” value (CT26 cells; p.o. QD × 25 days) was “no obvious clinical abnormalities were observed”, the “T/C (%)” value ([2]; 30 mg/kg p.o. QD) was 66% and the “TGI (%)” value ([2]; 30 mg/kg p.o. QD) was 34%. The Tumor volume ([2]; 30 mg/kg p.o. QD) was 1205.60 ± 259.65 mm^3, the “T/C (%)” value [2, 3] was 15% and the “TGI (%)” value [2, 3] was 85%. The Tumor volume [2, 3] was 268.89 ± 57.10 mm^3, the “T/C (%)” value ([2]; 100 mg/kg p.o. QD) was 52% and the “TGI (%)” value ([2]; 100 mg/kg p.o. QD) was 48%. The Tumor volume ([2]; 100 mg/kg p.o. QD) was 951.28 ± 116.30 mm^3 and the “Animal death / changes in body weight” value ([2]; alone or combined with anti-PD-1 antibody) was “no animal death or significant changes in body weight”.
